Test results reported in patent US8263389B2, “Perifusion device” (Biorep Technologies, Inc., priority 2007, dated 2012).
Where no end group is shown, it is not given here.

Legend:
Islet cells = assay: insulin release by perifusion of islet cells after oxygen deprivation, measured by ELISA; format: cell-based; conditions: 11 mM glucose, GLP-1 in addition to 11 mM glucose, KCl
Experimental: Islet cells were compromised by depriving them from the normal oxygen concentration for 0.5, 2, 6, and 12 hours. After that, these islets were incubated in the perifusion system and exposed to substances that stimulate insulin release such as 11 mM of glucose, GLP-1 in addition to 11 mM of glucose, and potassium chloride (KCl).

human islets = assay: glucagon-insulin release from in vitro perifused human islets; format: cell-based; conditions: alpha cells of perifused human islets
Experimental: FIG. 22 illustrates glucagon-insulin release from in vitro perifused human islets. This experiment was conducted to show the usefulness of the perifusion system in drug screening. Insulin and glucagon are hormones secreted from the beta and alpha cells of the islets of Langerhans. […] In the same way, any other compound's ability to influence the health or alter the behavior of the pancreatic islets can be assayed using the perifusion system of the invention.

[1] = control batch, normal culture conditions without oxygen deprivation
[2] = islets after twelve hours of incubation with low oxygen

Molecule | insulin release response to stimulus (Islet cells; [1]) | insulin release response to stimulus (Islet cells; [2]) | glucagon release profile (human islets)
[Cl-].[K+] [KCl, potassium chloride] | prominent response | very small | 
GLP-1 (HAEGTFTSDVSSYLEGQAAKEFIAWLVKGR; ends and bridges not checked; UniProt P01275 98-127, looked up) | prominent response | little or no response | 
kainates |  |  | stimulated the alpha cells to produce glucagon
